From article PMC10960024, “Diindoles produced from commensal microbiota metabolites function as endogenous CAR/Nr1i3 ligands” (Nature Communications, 2024)

Target: T1, hCAR (Homo sapiens, UniProt Q14994)
T1 construct: The human CAR LBD (Lys^108 – Ser^352) was amplified by PCR from cDNA; HIS6; made in house; host or cells: E. coli BL21(DE3)
T1 sequence (Q14994 108-352): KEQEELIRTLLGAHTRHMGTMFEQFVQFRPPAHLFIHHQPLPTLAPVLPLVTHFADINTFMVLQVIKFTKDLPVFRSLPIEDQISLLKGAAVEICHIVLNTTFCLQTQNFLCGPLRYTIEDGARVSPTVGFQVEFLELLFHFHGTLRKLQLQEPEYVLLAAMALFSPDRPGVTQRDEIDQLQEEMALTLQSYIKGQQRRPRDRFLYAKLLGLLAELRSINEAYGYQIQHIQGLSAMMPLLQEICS
Experiment: Bottom-up HDX-MS of hCAR with ligand
Assay type: binding
Conditions: 100 µM ligand
Experimental: Human CAR protein was prepared at 10 µM in 100 mM ammonium acetate pH 7.25 and diluted into either equilibration buffer (10 mM phosphate buffer, pH 7.5) or deuterated reaction buffer (10 mM phosphate buffer, 150 mM NaCl, pH 7.5 in D2O). After labeling times of 1, 10 or 30 min at 25 °C, samples were mixed with equal volumes of quench buffer (100 mM phosphate buffer, pH 2.5) at 0 °C. […] HDX-MS was performed using a commercial Waters HDX system (M-class ACQUITY UPLC and Water Cyclic IMS Mass Spectrometer). Leucine enkephalin was used for mass correction, and all time points were carried out in triplicate. Samples were digested using an Enzymate BEH Pepsin column (2.1 × 30 mm, Waters) at 15 °C. Peptides were desalted on an ACQUITY UPLC BEH C18 VanGuard Pre-column (2.1 × 5 mm, Waters) and separated using an ACQUITY UPLC BEH C18 column (100 × 1 mm, Waters). ProteinLynx Global server (PLGS) and DynamX software was used for peptide identification and deuterium uptake analysis, respectively. PyMOL 2.5 was used for structural visualization.

Question: Which results are given for `CC(c1c[nH]c2ccccc12)c1c[nH]c2ccccc12` [DIE, 3,3’-diindolylethane]?
Answer: deuterium uptake change, residues 235–243 (H12/AF2): increased uptake; deuterium uptake difference, amino acids 217–234 (H11): < 10%; difference in deuterium uptake compared to apo hCAR, amino acids 51–65 (H3): > 20%
